Structures can show the parent of a compound that is named as a salt. Where two headings read alike, the source gives them in different places.
How the values were obtained:
serotonin transporter = biological target: T1, serotonin transporter (Rattus norvegicus, UniProt P31652); test: 3H-paroxetine displacement, affinity for the serotonin transporter; format: binding
T1 construct: displace ^3H-paroxetine from male rat frontal cortical membranes; from tissue; host or cells: male rat frontal cortex membranes

human 5HT1A receptors = biological target: T2, human 5HT1A receptors (Homo sapiens, UniProt P08908); test: [3H] 8-OH-DPAT displacement from the 5HT1A serotonin receptor (transfected CHO cells); format: binding
T2 construct: expressed in transfected cells; host or cells: CHO cells
T2 sequence (P08908 1-422): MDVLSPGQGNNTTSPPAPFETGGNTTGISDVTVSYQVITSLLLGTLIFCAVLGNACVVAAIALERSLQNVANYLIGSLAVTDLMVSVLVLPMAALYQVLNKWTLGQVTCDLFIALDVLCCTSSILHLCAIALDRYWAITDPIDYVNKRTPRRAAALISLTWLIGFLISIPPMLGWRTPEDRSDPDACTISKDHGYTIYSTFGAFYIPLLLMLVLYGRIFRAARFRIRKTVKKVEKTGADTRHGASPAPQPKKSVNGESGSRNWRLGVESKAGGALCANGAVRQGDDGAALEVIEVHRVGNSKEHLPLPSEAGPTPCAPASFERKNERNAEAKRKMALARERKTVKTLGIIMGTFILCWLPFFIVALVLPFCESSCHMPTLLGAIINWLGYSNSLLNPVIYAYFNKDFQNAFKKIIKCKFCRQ
Source text: High affinity for the serotonin 5HT1A receptor was established by testing the claimed compound's ability to displace [^3H] 8-OH-DPAT (dipropylamino-tetralin) from the 5HT1A serotonin receptor following a modification of the procedure of Hall et al., J. Neurochem. 44, 1685 (1985) which utilizes CHO cells stably transfected with human 5HT1A receptors.

[1] = biological target: T3, cloned human 5HT1A receptors (Homo sapiens, UniProt P08908); test: 35S-GTPγS binding assay, antagonist activity at 5HT1A receptors; format: biochemical; conditions: for IC50: 35S-GTPγS binding, reversal of the effects of the standard agonist 8-OH-DPAT, membranes with cloned human 5HT1A receptors, read-out: 5HT1A Function IC50; for Emax: maximum inhibitory effect in 35S-GTPγS binding versus 8-OH-DPAT, read-out: 5HT1A Function (Imax)
T3 construct: expressed in transfected cells
T3 sequence (P08908 1-422): T2 sequence (P08908 1-422)
Procedure: Antagonist activity at 5HT1A receptors was established by using a ^35S-GTPγS binding assay similar to that used by Lazareno and Birdsall (Br. J. Pharmacol. 109: 1120, 1993), in which the test compound's ability to affect the binding of 35S-GTPγS to membranes containing cloned human 5HT1A receptors was determined. Agonists produce an increase in binding whereas antagonists produce no increase but rather reverse the effects of the standard agonist 8-OH-DPAT. The test compound's maximum inhibitory effect is represented as the 1max, while its potency is defined by the IC50.

[2] = displacement of [3H] 8-OH-DPAT, CHO cells stably transfected with human 5HT1A receptors, read-out: 5HT1A Receptor Affinity KI

T1 sequence (P31652 whole entry): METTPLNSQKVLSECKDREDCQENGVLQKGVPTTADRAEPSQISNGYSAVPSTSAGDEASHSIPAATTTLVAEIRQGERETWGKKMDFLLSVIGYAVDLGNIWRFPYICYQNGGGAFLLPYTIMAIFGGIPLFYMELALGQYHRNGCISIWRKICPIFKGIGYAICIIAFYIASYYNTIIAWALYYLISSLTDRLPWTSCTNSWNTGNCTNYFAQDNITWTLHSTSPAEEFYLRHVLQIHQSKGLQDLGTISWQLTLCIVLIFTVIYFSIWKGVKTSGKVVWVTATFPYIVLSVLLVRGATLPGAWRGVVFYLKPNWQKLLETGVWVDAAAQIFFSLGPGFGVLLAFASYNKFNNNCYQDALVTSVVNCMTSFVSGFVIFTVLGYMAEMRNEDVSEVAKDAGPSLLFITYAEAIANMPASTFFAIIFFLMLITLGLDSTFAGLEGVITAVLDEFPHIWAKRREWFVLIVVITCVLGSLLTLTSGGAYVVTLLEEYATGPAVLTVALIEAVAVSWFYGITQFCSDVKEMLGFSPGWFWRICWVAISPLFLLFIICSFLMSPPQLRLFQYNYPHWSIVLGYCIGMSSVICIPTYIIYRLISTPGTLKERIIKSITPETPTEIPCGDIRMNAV

Compound | melting point [°C] | Ki (serotonin transporter; displacement of 3H-paroxetine from male rat frontal cortical membranes, read-out: 5-HT Transporter Affinity KI) [nM] | Ki (human 5HT1A receptors; [2]) [nM] | Ki (serotonin transporter) [nM] | Ki (human 5HT1A receptors) [nM] | IC50 [1] [nM] | Emax [1] [%]
N#Cc1ccc2[nH]cc(C3=CCN(CC4COc5ccc6ncccc6c5O4)CC3)c2c1 (stereo not drawn) (as salt: fumarate) [Example 5, 3-[1-(2,3-Dihydro[1,4]dioxino[2,3-f]quinolin-2-ylmethyl)-1,2,3,6-tetrahydropyridin-4-yl]-1H-indole-5-carbonitrile] | 159 to 161 |  |  |  |  |  | 
COc1cc2c(c3cccnc13)O[C@@H](CN1CC=C(c3c[nH]c4ccc(F)cc34)CC1)CO2 (as salt: fumarate) [Example 17, 2-[4-(5-Fluoro-1H-indol-3-yl)-3,6-dihydro-2H-pyridin-1-ylmethyl]-6-methoxy-2,3-dihydro[1,4]dioxino[2,3-f]qiuinoline] | 217 |  |  |  |  |  | 
Cc1ccc2c3c(ccc2n1)OCC(CN1CC=C(c2c[nH]c4cc(F)ccc24)CC1)O3 (stereo not drawn) (as salt: oxalate) (hydrate or solvate) [Example 10, 2-[4-(6-Fluoro-1H-indol-3-yl)-3,6-dihydro-2H-pyridin-1-ylmethyl]-8-methyl-2,3-dihydro[1,4]dioxino[2,3-f]quinoline] | 140 to 143 |  |  |  |  |  | 
Fc1ccc2[nH]cc(CC3CCN(C[C@H]4COc5ccc6ncccc6c5O4)CC3)c2c1 (as salt: oxalate) [Example 3] | 184 |  |  |  |  |  | 
Fc1ccc2[nH]cc(C3=CCN(C[C@H]4COc5ccc6ncccc6c5O4)CC3)c2c1 (hydrate or solvate) [Example 2] | 184 |  |  |  |  |  | 
C1=C(c2c[nH]c3ccccc23)CCN(C[C@H]2COc3ccc4ncccc4c3O2)C1 (hydrate or solvate) [Example 4, 2-[1,4-(1H-indol-3-yl)-3,6-dihydro-2H-pyridin-1-ylmethyl]-2,3-dihydro[1,4]dioxino[2,3-f]quinoline] | 217 |  |  |  |  |  | 
Cc1ccc2c3c(ccc2n1)OCC(CN1CCC(Cc2c[nH]c4ccc(F)cc24)CC1)O3 (stereo not drawn) [Example 8, 2-({4-[(5-Fluoro-1H-indol-3-yl)methyl]piperidin-1-yl}methyl)-8-methyl-2,3-dihydro[1,4]dioxino[2,3-f]quinoline] | 91 to 92 | 2.56 | 7.24 |  |  |  | 
Cc1ccc2c3c(ccc2n1)OCC(CN1CC=C(c2c[nH]c4ccccc24)CC1)O3 (stereo not drawn) [Example 9, 2-[4-(1H-Indol-3-yl)-3,6-dihydro-2H-yridin-1-ylmethyl]-8-methyl-2,3-dihydro[1,4]dioxino[2,3-f]quinoline] | 210 |  |  | 2.34 | 3.02 | 56.7 | 98.3
CCc1ccc2c3c(ccc2n1)OCC(CN1CC=C(c2c[nH]c4ccccc24)CC1)O3 (stereo not drawn) [Example 13, 8-Ethyl-2-[(4-(1H-indol-3-yl)-3,6-dihydropyridin-1(2H)-yl)methyl]-2,3-dihydro[1,4]dioxino[2,3-f]quinoline] | 190 |  |  | 4.9 | 6.82 | 162 | 88.7
Fc1cc2c(c3cccnc13)OC(CN1CC=C(c3c[nH]c4ccccc34)CC1)CO2 (stereo not drawn) [Example 16, 6-Fluoro-2-[4-(1H-indol-3-yl)-3,6-dihydro-2H-pyridin-1-ylmethyl]-2,3-dihydro[1,4]dioxino[2,3-f]quinoline] | 215 |  | 55.9 | 21 |  |  | 
Cc1ccc2c3c(ccc2n1)OC[C@H](CN1CC=C(c2c[nH]c4c(F)cccc24)CC1)O3 [Example 21] | 205 to 221 |  |  | 2.94 | 7.75 | 51.7 | 100
Cc1cnc2ccc3c(c2c1)OC(CN1CC=C(c2c[nH]c4ccccc24)CC1)CO3 (stereo not drawn) [Example 23, 2-[4-(1H-Indol-3-yl)-3,6-dihydro-2H-pyridin-1-ylmethyl]-9-methyl-2,3-dihydro[1,4]dioxino[2,3-f]quinoline] | 211 to 213 |  | 7.76 | 28 |  |  | 

— patent US6458802B1, “Antidepressant azaheterocyclymethyl derivatives of 2,3-dihydro-1,4-dioxino [2,3-f]quinoline” (Wyeth, priority 2001, dated 2002)
